From patent US7250295B2 (Board of Trustees of Michigan State University, priority 1999, dated 2007)
pIC50: −log10 of the molar value.

Assays:
mAB 6F5 [1] = format: binding, mouse; conditions: read-out: 50% inhibitory concentration
[2] = system: antibody obtained from C430-BSA-immunized mice; assay: CI-ELISA: antisera of C430-BSA-immunized mice on immobilized DONPEP.2 phage; format: binding
Experimental: The strips were washed and blocked as described for the CD-ELISA. Various concentrations of DON (0 to 10,000 ηg/ml in 1% methanol-PBS), 50 μl/well, was added to the wells, and then 50 μl of anti-DON mAB 6F5 (10 μg/ml in 10% milk-PBS) was added to each well. The wells were incubated at 37° C. for 1 hour. Then the wells were washed six times with PBS-T, and the amounts of bound anti-DON mAB 6F5 were determined by incubation with goat anti-mouse IgG-HRP conjugate (diluted 1:2,000 with 10% milk-PBS) at 37° C. for 1 hour. The amounts of bound enzyme were determined as described above.
Synthetic peptide C430 was conjugated to BSA with a m-maleimidobenzoyl-N-hydroxysulfosuccinimide ester (sulfo-MBS) cross-linker. The C430-BSA conjugate, at a molar ratio of peptide C430 to the carrier protein BSA of about 29:1, was used to inject 7-week-old BALB/c female mice intraperitoneally or 6-month-old New Zealand white rabbits subcutaneously. The initial injections used for the mice contained 100 to 200 μg of C430-BSA conjugate in 200 μl of saline-Freund's complete adjuvant (1:1). These injections were followed at 3-week intervals by booster injections consisting of 100 to 200 μg of conjugate in 200 μl of saline-Freund's incomplete adjuvant (1:1). […]

[3] = system: protein synthesis in vitro with rabbit reticulocyte lysate; format: biochemical
mAB 6F5 [4] = assay: Binding of nivalenol to mAB 6F5; design: species or system mouse

Molecule | pIC50 (mAB 6F5 [1]) | inhibition of antisera binding to immobilized phage-displayed peptide ([2]; free competitor in solution) | effect on new protein synthesis [3] | cell death (mouse bone marrow cells; B6C3F1, mouse) | affinity for mAB 6F5 relative to DON (mAB 6F5 [4]) | pIC50 ([2]; antiserum after the fourth injection of C430-BSA, FIG. 6, read-out: concentration giving 50% inhibition of antiserum binding to immobilized phage-displayed peptide) | new protein synthesis with DON mixed with equimolar C430 [3] | effect on cell viability when combined with DON (mouse bone marrow cells) | effect on viability of bone marrow cells (mouse bone marrow cells)
CC1=C[C@H]2O[C@@H]3[C@H](O)C[C@](C)([C@@]2(CO)[C@H](O)C1=O)[C@]31CO1 [DON, 12,13-epoxy-3,7,15-trichothec-9-en-8-one, reference compound] | 5.47 | not inhibited by free DON | significantly inhibited new protein synthesis | 40-60% | – | – | – | – | –
CC1=C[C@H]2O[C@@H]3[C@H](O)[C@@H](O)[C@](C)([C@@]2(CO)[C@H](O)C1=O)[C@]31CO1 [Nivalenol, nivalenol] | – | – | – | – | slightly less affinity than DON | – | – | – | –
H-SWGPFPFGGGSC-OH [C430, NH2-SWGPFPFGGGSC-COOH] | – | – | had no such inhibitory effect | – | – | 6.41 | new protein synthesis was not inhibited | did not significantly increase or decrease the cell viability caused by DON | did not have any adverse effect on the viability
